Assay results: patent US20190211317A1, “PEPTIDES AND NANOPARTICLES FOR INTRACELLULAR DELIVERY OF GENOME-EDITING MOLECULES” (Aadigen, LLC, priority 2016, published 2019)
Values joined by “and” are separate entries in the source; they are usually repeats but may differ in a detail not shown here. Identical values can stand only once. No end group written: not given here.

Experiments:
[1] = test system: EGFP reporter gene in EGFP-U2OS, EGFP-HEK, EGFP-JURKAT cells; assay: EGFP reporter gene disruption from CPP delivery of CAS9:sgRNA (flow cytometry); type: cell-based, human; settings: for reduction of EGFP-positive cells: EGFP-JURKAT; for decrease in EGFP expression: CAS9:gRNA 50 nM, CPP:cargo 20:1; for reduction of EGFP-expressing cells / loss of EGFP expression: JURKAT;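 on all read-outs here: cells carrying one integrated EGFP reporter received peptide-complexed CAS9 preloaded 1:1 with EGFP sgRNA, cultured 72 h, then EGFP level read by flow cytometry, lipofectamine 2000 and RNAiMAX as positive controls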
Procedure: Efficacy of CPP-mediated delivery was quantified using a well-established CAS9-induced gene disruption method (Fu et al, 2013, supra), by targeting a specific site in the exogenous EGFP gene reporter in three human cell lines expressing EGFP (GFP-U2OS, EGFP-HEK, EGFP-JURKAT).
Stock solutions of amphipathic peptides were prepared at 1 mg/mL in distilled water and sonicated for 10 min. CAS9 protein was preloaded with purified EGFP sgRNA at a molar ratio of 1:1 and incubated for 10 min prior to forming complexes with the peptides. Preloaded CAS9/gRNA complexes (10 nM, 25 nM, and 50 nM) were mixed with CPPs at 5:1, 10:1 and 20:1 molar ratios of CPP to cargo and incubated for 30 min at 37° C. prior to cell transfection.
Cell line containing a single integrated EGFP reporter gene (GFP-U2OS, EGFP-HEK and EGFP-JURKAT) were cultured in Dulbecco's Modified Eagle's Medium (DMEM), supplemented with 2 mM glutamine, 1% antibiotics (streptomycin 10,000 μg/mL, penicillin, 10,000 IU/mL) and 10% (w/v) foetal calf serum (FCS) at 37° C. in a humidified atmosphere containing 5% CO2. A total of 150,000 cells seeded in a 35 mm dish the day prior to transfection were grown to 50-60% confluence and overlaid with 200 μl of preformed complexes, incubated for 3-5 min, then 400 μl of DMEM was added. After 30 min incubation at 37° C., 1 mL of fresh DMEM containing 16% FCS was added to reach a final FCS concentration of 10%, without removing the overlay of CPP/CAS9-gRNA complexes. Cells were returned to the incubator for 72 hours.
CAS9-induced double-strand break formation was analyzed using flow cytometry by monitoring level of EGFP expression. […] Both lipofectamine 2000 and RNAiMAX delivery methods were used as positive controls.

[2] = CPP/CAS9 and CPP/CAS9:gRNA particle size, polydispersity, zeta potential (Zetasizer 4); type: physicochemical
Procedure: The CPP/CAS9 and CPP/CAS9/sgRNA particles were further characterized; the mean size, polydispersity and zeta potential were measured with Zetasizer 4 apparatus (Malvern Ltd). […] The mean size and the polydispersity of the CCP/CAS9 and CCP/CAS9:gRNA complexes were determined at 25° C. for 3 min per measurement and zeta potential was measured with Zetasizer 4 apparatus (Malvern Ltd).

[3] = test system: endogenous EMX1, AAVS and HPRT genes in Mouse (ESF-158) embryonic stem cells; assay: Delivery of multiple RGEN:gRNA complexes: EMX1, AAVS, HPRT editing in mouse ES cells (T7E1); type: cell-based
Procedure: (§1) RNAiMAX delivery method was used as a positive control.
(§2) U2OS cells were treated as described previously. H9 embryonic stem cells were cultured in Dulbecco's modified Eagle's medium with 4 mM L-glutamine adjusted to contain 1.5 g/L sodium bicarbonate and 4.5 g/L glucose and supplemented with 0.1 mM 2-mercaptoethanol, 85%; and 15% ES-Cell Qualified fetal bovine serum. […] CAS9-induced double-strand break formation followed by repair through NHEJ was analyzed 72 hr after transfection by T7E1 assay and quantified using Fragment Analyzer System. The deletion (indel) frequencies in EMX1, AAVS and HPRT genes were quantified using T7E1 assay. Data for on-target mutations induced by RGEN:gRNA are reported as an average of 3 separate experiments.

[4] = test system: endogenous EMX1 and exogenous EGFP reporter genes in GFP-U2OS, EGFP-JURKAT cells; assay: Delivery of multiple RGEN/gRNA complexes: EMX1 and EGFP editing; type: cell-based, human
Procedure: RNAiMAX delivery was used as positive control. Cells were treated as described previously and CAS9-induced NHEJ analyzed 72 hr after transfection. […] The deletion (indel) frequency in the EMX1 gene was quantified using the T7E1 assay and loss of EGFP expression was monitored by flow cytometry. Data for on-target mutations induced by RGEN/gRNA are reported as an average of 3 separate experiments.

[5] = test system: EGFP-U2OS, EGFP-HEK, EGFP-JURKAT cells; assay: Toxicity of CPP/CAS9/gRNA complexes (MTT assay); type: cell-based; settings: three cell lines; concentrations up to 100 nM; 24 h
Procedure: The robust EGFP disruption observed in the three cell lines was found not to be the result of cellular toxicity. […] A total of 30,000 cells seeded in 24-well plates the day prior to transfection were incubated with increasing concentrations of CPP/CAS9/gRNA (complexed at a 10:1 or 20:1 molar ratio of CPP to preloaded CAS9/gRNA complex) ranging from 1 to 200 nM for 30 min prior to addition of medium to reach a final 10% concentration of FCS. Cytotoxic response was measured 24 hours later by colorimetric MTT assay (Sigma, Germany). For MTT assay, cell culture medium was removed and replaced with PBS containing 2.5 mg/ml MTT for 4 hours. Results correspond to the average of 3 separate experiments. […] Viability was reduced by less than 10% at 200 nM. In contrast, at […] for Lipofectamine 2000 or RNAiMAX, between 60-70% and 20-25% cell death was observed, depending on cell line. Moreover, both lipid methods appeared to be highly toxic on JURKAT cells, inducing 75% (lipofectamine 2000) or 45% (RNAiMAX) cell death.

[6] = test system: endogenous EMX1, AAVS and HPRT genes in U2OS and Human (H9) embryonic stem cells; assay: Delivery of multiple RGEN:gRNA complexes: EMX1, AAVS, HPRT editing in U2OS and H9 ES cells (T7E1); type: cell-based
Procedure: as §1, §2

[7] = test system: endogenous EMX1 gene in U2OS, JURKAT and K562 cells; assay: EMX1 gene editing from CPP delivery of CAS9/gRNA (T7E1 assay); type: cell-based, human
Procedure: RNAiMAX delivery was used as a positive control as it was previously reported to show better results than Lipofectamine 2000 (Zuris et al., 2015, supra). […] Cells were returned to the incubator for 72 hours.

[8] = test system: endogenous hPD1 gene in JURKAT and K562 cells; assay: hPD1 gene editing in T cell lines (T7E1 assay); type: cell-based, human; settings: CAS9/sgRNA 5 μg/10 μg
Procedure: CAS9 protein was preloaded with purified sgRNA at a molar ratio of 1:1 and incubated for 10 min prior to forming complexes with peptides.
5×10^6 cells were washed twice with DPBS by centrifuging at 800 rpm for 5 minutes and resuspended in 100 ^l transfection buffer, and then transferred into the electroporation cuvette. An optimized program selected for both high transfection and high efficiency on T cells was used. After electroporation, cells were resuspended in 500 ^l pre-warmed AIM-V medium containing 10% FBS and incubated at 37° C. in 5% CO2. The transfection efficiency was evaluated after 48 hr by flow cytometry or T7E1 assay.
RNAiMAX delivery method was used as positive control. Cells were either resuspended in or overlaid with 100 μl of preformed complexes, incubated for 3-5 min, and then 300 μl of DMEM was added. […] The indel frequency in the hPD1 gene was quantified using the T7E1 assay.

[9] = test system: hPD1 gene in human T cells; assay: hPD1 gene editing in primary human T cells (T7E1 assay); type: cell-based
Procedure: T cells were isolated from PBMCs (2 different donors) using anti-CD3/anti-CD28 antibodies bound to paramagnetic beads (Dynabeads ClinExVivo CD3/CD28, Invitrogen) at a ratio of 3:1 (beads:cells). The cells and beads were co-incubated for 2 hours at room temperature and CD3′ cell enrichment was performed using Dynal ClinExVIVO MPC magnet (Thermo Fisher). The anti-CD3/anti-CD28 paramagnetic beads were removed, washed and concentrated. Cells in the CD3′ fraction were resuspended in activation media at a concentration of 1×10^6 cells/ml with AIM-V medium (Thermo Fishers) supplemented with 10% fetal calf serum, 300 IU/ml IL2 and 50 ng/ml OKT3 (MuromonAB-CD3) for two days.
Cells were transfected by electroporation with CD-19 plasmid or gRNA/CAS9 (5 μg/10 μg) using a Nucleofector 2b (Lonza, Germany) with the Amaxa Human T cells Nucleofector Kit, VPA-1002 (Lonza, Germany). 5×10^6 cells were washed twice with DPBS by centrifuging at 800 rpm for 5 minutes and resuspended in 100 ^l transfection buffer, and then transferred into the electroporation cuvette. An optimized program selected for both high transfection and high efficiency on T cells was used. After electroporation, cells were resuspended in 500 ^l pre-warmed AIM-V medium containing 10% FBS and incubated at 37° C. in 5% CO2. The transfection efficiency was evaluated after 48 hr by flow cytometry or T7E1 assay.
As control, CAS9 loaded with gRNA targeting GFP was used.
Cells were returned to the incubator for 72 hours. CAS9-induced double-strand break followed by repair through non-homologous end joining (NHEJ) was analyzed by either the T7E1 assay or using the Genome Cleavage Detection kit (GCD Thermo Fisher) and quantified using Fragment Analyzer System. The indel frequency in the target gene was quantified using the T7E1 assay. The cultures were expanded and analyzed for viability and PD1 levels every 10 days. T cell expansion medium contained AIM V medium, supplemented with 5% heat-inactivated human AB Serum, 1% Gluta-Max, and 300 IU/mL IL-2.

Compound: N=C(N)NCCC[C@H](NC(=O)[C@H](CCCNC(=N)N)NC(=O)[C@H](CCCCN)NC(=O)[C@H](CCCNC(=N)N)NC(=O)[C@@H]1CCCN1C(=O)[C@H](Cc1c[nH]c2ccccc12)NC(=O)[C@H](CCC(=O)O)NC(=O)[C@H](CCCNC(=N)N)NC(=O)[C@H](Cc1c[nH]c2ccccc12)NC(=O)[C@H](Cc1c[nH]c2ccccc12)NC(=O)[C@H](CCCNC(=N)N)NC(=O)[C@H](CCC(=O)O)NC(=O)[C@H](Cc1c[nH]c2ccccc12)NC(=O)[C@H](Cc1c[nH]c2ccccc12)NC(=O)[C@H](CCCCN)NC(=O)CCN)C(=O)O [VEPEP-3b]
- reduction of EGFP-positive cells [1]: 87%
- reduction of number of EGFP-expressing cells ([1]; HEK, 1 nM CAS9:gRNA): 71%
- decrease in EGFP expression ([1]; HEK): 93%
- reduction of EGFP-expressing cells / loss of EGFP expression ([1]; 1 nM CAS9:gRNA): 55%
- reduction of number of EGFP-expressing cells ([1]; U2OS, 1 nM CAS9:gRNA): 68%
- decrease in EGFP expression ([1]; U2OS): 92%
- PI ([2]; Cas9:gRNA, molar ratio 10/1): 0.35 ± 0.1
- Size ([2]; Cas9:gRNA, molar ratio 10/1): 38 ± 4 nm
- zeta ([2]; Cas9:gRNA, molar ratio 10/1): 27.0 ± 4 MV
- PI ([2]; Cas9:gRNA, molar ratio 20/1): 0.37 ± 0.1
- Size ([2]; Cas9:gRNA, molar ratio 20/1): 51 ± 5 nm
- zeta ([2]; Cas9:gRNA, molar ratio 20/1): 25.3 ± 7 MV
- Pt ([2]; Cas9, molar ratio 10/1): 0.33 ± 0.1
- zeta ([2]; Cas9, molar ratio 10/1): 21.0 ± 5 mV
- Size ([2]; Cas9, molar ratio 10/1, 0.9% NaCl): 45 ± 5 nm
- Pt ([2]; Cas9, molar ratio 20/1): 0.35 ± 0.1
- Size ([2]; Cas9, molar ratio 20/1): 52 ± 5 nm
- zeta ([2]; Cas9, molar ratio 20/1): 17.0 ± 5 mV
- formation of stable nanoparticles ([2]; with CAS9 and CAS9:gRNA complex, molar ratio 10:1 or 20:1): able to form stable nanoparticles
- Mean diameter ([2]; with CAS9 and CAS9:gRNA, molar ratio 10:1 or 20:1): about 50 nm
- Mean indel Frequency ± S.E.M ([3]; AAVS): 79 ± 5%
- Mean indel Frequency ± S.E.M ([3]; EMX1): 84 ± 6%
- Mean indel Frequency ± S.E.M ([3]; HPRT): 85 ± 7%
- Mean indel Frequency ± S.E.M ([4]; JURKAT, EGFP): 84 ± 7%
- Mean indel Frequency ± S.E.M ([4]; JURKAT, EMX1): 79 ± 7%
- Mean indel Frequency ± S.E.M ([4]; U2OS, EGFP, 25 nM each complex): 80 ± 5%
- Mean indel Frequency ± S.E.M ([4]; U2OS, EMX1): 82 ± 6%
- toxicity [5]: no toxicity
- Mean indel Frequency ± S.E.M ([6]; H9, AAVS): 71 ± 7%
- Mean indel Frequency ± S.E.M ([6]; H9, EMX1): 67 ± 6%
- Mean indel Frequency ± S.E.M ([6]; H9, HPRT): 70 ± 4%
- Mean indel Frequency ± S.E.M ([6]; U2OS, AAVS): 75 ± 7%
- Mean indel Frequency ± S.E.M ([6]; U2OS, EMX1, 20 nM each complex): 82 ± 5%
- Mean indel Frequency ± S.E.M ([6]; U2OS, HPRT): 84 ± 6%
- Mean indel Frequency ± S.E.M ([7]; JURICAT, CAS9/sgRNA 25 nM): 69% and 69 ± 8%
- Mean indel Frequency ± S.E.M ([7]; JURKAT, CAS9/sgRNA 50 nM): 71 ± 5%
- Mean indel Frequency ± S.E.M ([7]; K562, CAS9/sgRNA 25 nM): 79% and 79 ± 5%
- Mean indel Frequency ± S.E.M ([7]; K562, CAS9/sgRNA 50 nM): 81 ± 7%
- Mean indel Frequency ± S.E.M ([7]; U2OS, CAS9/sgRNA 25 nM, 20:1): 75% and 75 ± 7%
- Mean indel Frequency ± S.E.M ([7]; U2OS, CAS9/sgRNA 50 nM): 77 ± 5%

Compound: GLWRALWRLLRSLWRLLWKV [CADY, reference compound]
- reduction of EGFP-positive cells [1]: 18%
- decrease in EGFP expression ([1]; HEK): 42%
- reduction of EGFP-expressing cells / loss of EGFP expression ([1]; 1 nM CAS9:gRNA): no change in EGFP expression
- decrease in EGFP expression ([1]; U2OS): 33%
- loss of EGFP expression ([1]; both cell lines (U2OS, HEK), 1 nM CAS9:gRNA): no change in EGFP expression
- complex formation with CAS9 [2]: did not form any complex
- PI ([2]; Cas9:gRNA, molar ratio 20/1): 0.6 and 0.6 ± 0.2
- Size ([2]; Cas9:gRNA, molar ratio 20/1): 350±20 nm
- zeta ([2]; Cas9:gRNA, molar ratio 20/1): 45 ± 8 MV
- formation of stable particles with preloaded CAS9:gRNA complex ([2]; molar ratio 10:1): neither CADY nor VEPEP-9 formed stable particles
- Mean indel Frequency ± s.e.m ([8]; JURKAT): 12 ± 9%
- Mean indel Frequency ± s.e.m ([8]; K562): 15 ± 9%
- Mean indel Frequency ± s.e.m ([9]; Donor 1, CAS9/sgRNA 2.5 μg/5 μg): 0%
- Mean indel Frequency ± s.e.m ([9]; Donor 1, CAS9/sgRNA 5 μg/10 μg): 0%
- Mean indel Frequency ± s.e.m ([9]; Donor 2, CAS9/sgRNA 2.5 μg/5 μg): 0%
- Mean indel Frequency ± s.e.m ([9]; Donor 2, CAS9/sgRNA 5 μg/10 μg): 0%
- mean indel frequency of hPD1 gene ([9]; T cells from the two donors, 5 μg/10 μg CAS9/gRNA): No editing
